Test results as given in BindingDB's records for doi:10.1021/jm00107a048 (Roche Research Center, 1991).

What follows are molecules tested against Platelet-activating factor receptor (Canis lupus familiaris) (assay: PAF-antagonist activity determined in dog platelets by PAF-binding assay).

**Q.** How did the IC50 turn out when `Cc1nnc2n1-c1sc(C#CCN3C(=O)Cc4ccccc43)cc1C(c1ccccc1Cl)=NC2` was run?
**A.** The IC50 was 3 nM.

**Q.** `Cc1nnc2n1-c1sc(C#CCn3c(=O)n(CCN(C)C)c(=O)c4ccccc43)cc1C(c1ccccc1Cl)=NC2` was tested. Which IC50 did it give?
**A.** Its IC50 is 150 nM.

**Q.** With `Cc1nnc2n1-c1sc(C#CCn3c(=O)c4cc(Cl)ccc4c4ccc(Cl)cc43)cc1C(c1ccccc1Cl)=NC2` as the molecule, how does the IC50 read?
**A.** The IC50 was 30 nM.

**Q.** Which IC50 does the source give for `Cc1nnc2n1-c1sc(C#CCn3ncc4ccccc43)cc1C(c1ccccc1Cl)=NC2` here?
**A.** The IC50 was 1 nM.

**Q.** With `Cc1nnc2n1-c1ccc(I)cc1C(c1ccccc1F)NC2` (stereo not given) as the molecule, how does the IC50 read?
**A.** The IC50 was 1000 nM.

**Q.** With `Cc1nnc2n1-c1sc(C#CCn3c(=O)c4ccccc4c4ccccc43)cc1C(c1ccccc1Cl)=NC2O` (stereo not given) as the molecule, how does the IC50 read?
**A.** Its IC50 is 25 nM.

**Q.** How did the IC50 turn out when `Cc1nnc2n1-c1ccc(C#CCN3C(=O)CCc4ccccc43)cc1C(c1ccccc1F)=N[C@H]2C` was run?
**A.** Its IC50 is 6 nM.

**Q.** Which IC50 does the source give for `Cc1nnc2n1-c1sc(C#CCn3c(=O)n(C)c4ccccc43)cc1C(c1ccccc1Cl)=NC2` here?
**A.** Its IC50 is 0.3 nM.

**Q.** How did the IC50 turn out when `O=C1CCc2ccccc2N1CC#Cc1ccc2c(c1)C(c1ccccc1F)=NCc1nnc(C(F)(F)F)n1-2` was run?
**A.** Its IC50 is 200 nM.

**Q.** For `Cc1nnc2n1-c1sc(C#CCN3C(=O)COc4ccccc43)cc1C(c1ccccc1Cl)=NC2`, which IC50 is on record?
**A.** The IC50 was 0.7 nM.

**Q.** With `Cc1nnc2n1-c1sc(C#CCN3C(=O)COc4ccc(Cl)cc43)cc1C(c1ccccc1Cl)=NC2` as the molecule, how does the IC50 read?
**A.** Its IC50 is 5 nM.

**Q.** `Cc1nnc2n1-c1sc(C#CCn3c(=O)n(CCN(C)C)c4ccccc43)cc1C(c1ccccc1Cl)=NC2` was tested. Which IC50 did it give?
**A.** Its IC50 is 30 nM.

**Q.** `Cc1nnc2n1-c1ccc(C#CCN3C(=O)CCc4ccccc43)cc1C(c1ccccc1F)=NC2` was tested. Which IC50 did it give?
**A.** The IC50 was 20 nM.

**Q.** With `Cc1nnc2nc(-c3ccccc3F)c3cc(C#CCN4C(=O)c5ccccc5C4=O)ccc3n12` as the molecule, how does the IC50 read?
**A.** Its IC50 is 300 nM.

**Q.** Which IC50 does the source give for `Cc1nnc2n1-c1sc(C#CCN3C(=O)CCc4ccc(Cl)cc43)cc1C(c1ccccc1Cl)=NC2` here?
**A.** The IC50 was 7 nM.

**Q.** `Cc1nnc2n1-c1sc(C#CCn3c(=O)c4ccccc4c4ccccc43)cc1C(c1cc(O)ccc1Cl)=NC2` was tested. Which IC50 did it give?
**A.** The IC50 was 15 nM.

**Q.** With `COc1cc2c(cc1OC)C(=O)N(CC#Cc1cc3c(s1)-n1c(C)nnc1CN=C3c1ccccc1Cl)CC2` as the molecule, how does the IC50 read?
**A.** The IC50 was 25 nM.

**Q.** Which IC50 does the source give for `Cc1nnc2n1-c1sc(C#CCN3C(=O)c4cccc5cccc(c45)C3=O)cc1C(c1ccccc1Cl)=NC2` here?
**A.** Its IC50 is 12 nM.

**Q.** `Cc1nnc2n1-c1ccc(C#CCN3C(=O)c4ccccc4C3=O)cc1C(c1ccccc1F)=NC2` was tested. Which IC50 did it give?
**A.** The IC50 was 10 nM.

**Q.** Which IC50 does the source give for `Cc1nnc2n1-c1ccc(C#CCN3C(=O)c4ccccc4C3=O)cc1C(c1ccccc1F)NC2` (stereo not given) here?
**A.** Its IC50 is 110 nM.

**Q.** For `Cc1nnc2n1-c1sc(C#CCC34CCCc5cccc(c53)NC4=O)cc1C(c1ccccc1Cl)=NC2` (stereo not given), which IC50 is on record?
**A.** Its IC50 is 0.7 nM.

**Q.** `Cc1nnc2n1-c1sc(C#CCN3C(=O)NCc4ccccc43)cc1C(c1ccccc1Cl)=NC2` was tested. Which IC50 did it give?
**A.** The IC50 was 6 nM.

**Q.** How did the IC50 turn out when `O=C1c2ccccc2C(=O)N1CC#Cc1ccc2c(c1)C(c1ccccc1F)=NCc1nncn1-2` was run?
**A.** The IC50 was 1000 nM.

**Q.** `Cc1nnc2n1-c1sc(C#CCn3c4c(c5cc(Cl)ccc53)CCCC4)cc1C(c1ccccc1Cl)=NC2` was tested. Which IC50 did it give?
**A.** Its IC50 is 90 nM.

**Q.** Which IC50 does the source give for `Cc1nnc2n1-c1sc(C#CCOc3cccnc3)cc1C(c1ccccc1Cl)=NC2` here?
**A.** Its IC50 is 4 nM.

**Q.** How did the IC50 turn out when `Cc1nnc2n1-c1sc(C#CCn3c(=O)c4ccccc4c4ccccc43)cc1C(c1ccccc1Cl)=NC2` was run?
**A.** Its IC50 is 13 nM.

**Q.** How did the IC50 turn out when `Cc1nnc2n1-c1sc(C#CCN3C(=O)Cn4ccc5c(Cl)ccc3c54)cc1C(c1ccccc1Cl)=NC2` was run?
**A.** Its IC50 is 15 nM.

**Q.** For `Cc1nnc2n1-c1sc(C#CCN3C(=O)CCc4ccccc43)cc1C(c1cc([N+](=O)[O-])ccc1Cl)=NC2`, which IC50 is on record?
**A.** The IC50 was 75 nM.

**Q.** How did the IC50 turn out when `Cc1nnc2n1-c1sc(C#CCn3c(=O)ccc4ccccc43)cc1C(c1ccccc1Cl)=NC2` was run?
**A.** The IC50 was 2 nM.

**Q.** How did the IC50 turn out when `C=C=Cn1c(=O)n(CC#Cc2cc3c(s2)-n2c(C)nnc2CN=C3c2ccccc2Cl)c2ccccc21` was run?
**A.** The IC50 was 6 nM.

**Q.** How did the IC50 turn out when `O=c1c2ccccc2c2ccccc2n1CC#Cc1cc2c(s1)-n1c(CO)nnc1CN=C2c1ccccc1Cl` was run?
**A.** The IC50 was 75 nM.

**Q.** With `Cc1nnc2n1-c1sc(C#CCN3C(=O)CCc4cc(Cl)cc(Cl)c43)cc1C(c1ccccc1Cl)=NC2` as the molecule, how does the IC50 read?
**A.** The IC50 was 9 nM.

**Q.** For `CCc1nnc2n1-c1ccc(C#CCN3C(=O)c4ccccc4C3=O)cc1C(c1ccccc1F)=NC2`, which IC50 is on record?
**A.** The IC50 was 100 nM.

**Q.** For `Cc1nnc2n1-c1sc(C#CCn3ccc4ccccc4c3=O)cc1C(c1ccccc1Cl)=NC2`, which IC50 is on record?
**A.** The IC50 was 1 nM.

**Q.** `Cc1nnc2n1-c1sc(C#CCn3c(=O)c4ccccc4c4ccccc43)cc1C(c1ccccc1Cl)NC2=O` (stereo not given) was tested. Which IC50 did it give?
**A.** The IC50 was 560 nM.

**Q.** `Cc1nnc2n1-c1sc(C#CCn3cnc4ccccc43)cc1C(c1ccccc1Cl)=NC2` was tested. Which IC50 did it give?
**A.** Its IC50 is 5 nM.

**Q.** How did the IC50 turn out when `Cc1nnc2n1-c1sc(C#CCn3c(=O)n(C)c(=O)c4ccccc43)cc1C(c1ccccc1Cl)=NC2` was run?
**A.** The IC50 was 0.6 nM.

**Q.** `Cc1nnc2n1-c1sc(C#CCn3c4c(c5cc(Cl)ccc53)CCCCC4)cc1C(c1ccccc1Cl)=NC2` was tested. Which IC50 did it give?
**A.** The IC50 was 70 nM.

**Q.** How did the IC50 turn out when `Cc1nnc2n1-c1sc(I)cc1C(c1ccccc1Cl)=NC2C` (stereo not given) was run?
**A.** Its IC50 is 120 nM.

**Q.** For `Cc1nnc2n1-c1sc(C#CCn3c(=O)[nH]c4ccccc43)cc1C(c1ccccc1Cl)=NC2`, which IC50 is on record?
**A.** Its IC50 is 9 nM.

**Q.** For `Cc1nnc2n1-c1sc(C#CCn3c(=O)c4ccccc4c4ccccc4c3=O)cc1C(c1ccccc1Cl)=NC2`, which IC50 is on record?
**A.** The IC50 was 51 nM.

**Q.** How did the IC50 turn out when `Cc1nnc2n1-c1sc(C#CCN3C(=O)C(=O)c4ccccc43)cc1C(c1ccccc1Cl)=NC2` was run?
**A.** Its IC50 is 7 nM.

**Q.** For `Cc1nnc2n1-c1sc(C#CCn3c4ccccc4c4ccccc43)cc1C(c1ccccc1Cl)=NC2`, which IC50 is on record?
**A.** Its IC50 is 120 nM.

**Q.** With `Cc1nnc2n1-c1sc(C#CCn3c(=O)c4ccccc4c4ccccc43)cc1C(c1ccccc1Cl)=NC2C` (stereo not given) as the molecule, how does the IC50 read?
**A.** Its IC50 is 250 nM.

**Q.** How did the IC50 turn out when `Cc1nnc2n1-c1sc(C#CCN3C(=O)CCc4ccccc43)cc1C(c1cc(O)ccc1Cl)=NC2` was run?
**A.** Its IC50 is 80 nM.

**Q.** With `Cc1nnc2n1-c1ccc(I)cc1C(c1ccccc1Cl)=NC2` as the molecule, how does the IC50 read?
**A.** The IC50 was 1000 nM.

**Q.** For `Cc1nnc2n1-c1sc(I)cc1C(c1cc([N+](=O)[O-])ccc1Cl)=NC2`, which IC50 is on record?
**A.** Its IC50 is 360 nM.

**Q.** How did the IC50 turn out when `Cc1nnc2n1-c1sc(C#CCN3C(=O)C4(C)CCCc5cccc3c54)cc1C(c1ccccc1Cl)=NC2` (stereo not given) was run?
**A.** Its IC50 is 12 nM.

**Q.** `Cc1nnc2n1-c1sc(C#CCN3C(=O)CCc4ccccc43)cc1C(c1ccccc1Cl)=NC2` was tested. Which IC50 did it give?
**A.** Its IC50 is 0.2 nM.

**Q.** For `O=C1CCc2ccccc2N1CC#Cc1ccc2c(c1)C(c1ccc(Cl)cc1)=NCc1nnc(C(F)(F)F)n1-2`, which IC50 is on record?
**A.** The IC50 was 1000 nM.

**Q.** How did the IC50 turn out when `Cc1nnc2n1-c1sc(C#CCN3Cc4cccc5cccc(c45)C3=O)cc1C(c1ccccc1Cl)=NC2` was run?
**A.** The IC50 was 4 nM.

**Q.** Which IC50 does the source give for `Cc1nnc2n1-c1sc(C#CCN3C(=O)c4cccc5cccc3c45)cc1C(c1ccccc1Cl)=NC2` here?
**A.** Its IC50 is 5 nM.

**Q.** For `Cc1nnc2n1-c1sc(C#CCn3c4c(c5ccccc53)CCCC4)cc1C(c1ccccc1Cl)=NC2`, which IC50 is on record?
**A.** Its IC50 is 7 nM.

**Q.** For `Cc1nnc2n1-c1ccc(I)cc1C(c1ccccc1F)=NC2`, which IC50 is on record?
**A.** Its IC50 is 1000 nM.

**Q.** Which IC50 does the source give for `Cc1nnc2n1-c1ccc(C#CCN3C(=O)CCc4ccccc43)cc1C(c1ccc(Cl)cc1)=NC2` here?
**A.** The IC50 was 100 nM.

**Q.** With `Cc1nnc2n1-c1sc(C#CCn3c4c(c5ccccc53)CCCCC4)cc1C(c1ccccc1Cl)=NC2` as the molecule, how does the IC50 read?
**A.** The IC50 was 15 nM.

**Q.** With `Cc1nnc2n1-c1ccc(C#CCOc3cccnc3)cc1C(c1ccccc1Cl)=NC2` as the molecule, how does the IC50 read?
**A.** Its IC50 is 130 nM.

**Q.** With `Cc1nnc2n1-c1sc(C#CCN3C(=O)CC(C)(C)c4ccccc43)cc1C(c1ccccc1Cl)=NC2` as the molecule, how does the IC50 read?
**A.** The IC50 was 12 nM.

**Q.** With `Cc1nnc2n1-c1sc(C#CCn3c(=O)n(-c4ccccc4)c4ccccc43)cc1C(c1ccccc1Cl)=NC2` as the molecule, how does the IC50 read?
**A.** Its IC50 is 1 nM.

**Q.** How did the IC50 turn out when `Cc1nnc2n1-c1ccc(C#CCN3C(=O)c4ccccc4C3=O)cc1C(c1ccccc1Cl)=NC2` was run?
**A.** The IC50 was 20 nM.
